In patent US8916702B2 (priority 2012, dated 2014):

tested on: HCV pseudoparticles (genotype 1a HCV E1 and E2 envelope, H77C isolate); test: microbe, parasite or virus in culture; type: cell-based; details: Hepatitis C virus, Huh-7, 48 h, HCV pseudoparticles (genotype 1a, H77C) in Huh7 cells; average of duplicate; luciferase 2 days after infection

Row | Structure (SMILES) | EC50
1 | COC(=O)/C=C/c1ccccc1NC(=O)C(=O)NCC(C)(C)CNC(=O)c1ccc(Nc2nc(NC3(c4ccc(Cl)cc4)CC3)nc(OCC(F)(F)F)n2)cc1 [Compound 3138] | 0.46 nM
2 | CC(C)(CNC(=O)C(=O)Nc1ccccc1C(=O)c1ccccc1)CNC(=O)c1ccc(Nc2nc(NC3(c4ccc(Cl)cc4)CC3)nc(OCC(F)(F)F)n2)cc1 [Compound 3141] | 0.11 nM
3 | CC(C)(CNC(=O)C(=O)Nc1ccc(OC(F)F)cc1)CNC(=O)c1ccc(Nc2nc(NC3(c4ccc(Cl)cc4)CC3)nc(OCC(F)(F)F)n2)cc1 [Compound 3146] | 0.05 nM
4 | O=C(NC/C(=N/C(=O)c1ccc(Nc2nc(NC3(c4ccc(Cl)cc4)CC3)nc(OCC(F)(F)F)n2)cc1)C(=O)O)C(=O)Nc1ccc(CCO)cc1 [Compound 3154] | 1.44 nM
5 | O=C(NC/C(=N/C(=O)c1ccc(Nc2nc(NC3(c4ccc(Cl)cc4)CC3)nc(OCC(F)(F)F)n2)cc1)C(=O)O)C(=O)Nc1ccc(OCC(F)(F)F)cc1 [Compound 3164] | 0.68 nM
6 | N#Cc1ccc(-c2ccc(NC(=O)C(=O)NC/C(=N/C(=O)c3ccc(Nc4nc(NC5(c6ccc(Cl)cc6)CC5)nc(OCC(F)(F)F)n4)cc3)C(=O)O)cc2)cc1 [Compound 3170] | 0.63 nM
7 | NC(=O)C(=O)NCC1(CNC(=O)c2ccc(Nc3nc(NC4(c5ccc(Cl)cc5)CC4)nc(OCC(F)(F)F)n3)cc2)CC1 [Compound 3175] | 0.11 nM
8 | COC(=O)[C@H](CNC(=O)C(=O)Nc1ccc(N2CCN(C(C)=O)CC2)cc1)NC(=O)c1ccc(Nc2nc(NC3(c4ccc(Cl)cc4)CC3)nc(OCC(F)(F)F)n2)cc1 [Compound 3186] | 0.7 nM

same assay, conditions: Hepatitis C virus, Huh-7, read-out: Activity (EC50 class), HCV pseudoparticles (genotype 1a, H77C) in Huh7 cells; EC50 expressed as class A/B

Row | Structure (SMILES) | EC50
9 | COC(=O)/C=C/c1ccccc1NC(=O)C(=O)NCC(C)(C)CNC(=O)c1ccc(Nc2nc(NC3(c4ccc(Cl)cc4)CC3)nc(OCC(F)(F)F)n2)cc1 [Compound 3138] | 0.01 to 10 nM
10 | CC(C)(CNC(=O)C(=O)Nc1ccccc1Oc1ccccc1)CNC(=O)c1ccc(Nc2nc(NC3(c4ccc(Cl)cc4)CC3)nc(OCC(F)(F)F)n2)cc1 [Compound 3139] | 0.01 to 10 nM
11 | C=C(C)c1ccccc1NC(=O)C(=O)NCC(C)(C)CNC(=O)c1ccc(Nc2nc(NC3(c4ccc(Cl)cc4)CC3)nc(OCC(F)(F)F)n2)cc1 [Compound 3140] | 0.01 to 10 nM
12 | CC(C)(CNC(=O)C(=O)Nc1ccccc1C(=O)c1ccccc1)CNC(=O)c1ccc(Nc2nc(NC3(c4ccc(Cl)cc4)CC3)nc(OCC(F)(F)F)n2)cc1 [Compound 3141] | 0.01 to 10 nM
13 | CC(C)(CNC(=O)C(=O)Nc1ccc(C(=O)c2ccccc2)cc1)CNC(=O)c1ccc(Nc2nc(NC3(c4ccc(Cl)cc4)CC3)nc(OCC(F)(F)F)n2)cc1 [Compound 3142] | 0.01 to 10 nM
14 | CC(C)(CNC(=O)C(=O)Nc1ccc(/C=C/c2ccccc2)cc1)CNC(=O)c1ccc(Nc2nc(NC3(c4ccc(Cl)cc4)CC3)nc(OCC(F)(F)F)n2)cc1 [Compound 3143] | 0.01 to 10 nM
15 | CCOC(=O)/C=C/c1ccc(NC(=O)C(=O)NCC(C)(C)CNC(=O)c2ccc(Nc3nc(NC4(c5ccc(Cl)cc5)CC4)nc(OCC(F)(F)F)n3)cc2)cc1 [Compound 3144] | 0.01 to 10 nM
16 | CC(C)(CNC(=O)C(=O)Nc1ccc(OC(F)(F)F)cc1)CNC(=O)c1ccc(Nc2nc(NC3(c4ccc(Cl)cc4)CC3)nc(OCC(F)(F)F)n2)cc1 [Compound 3145] | 0.01 to 10 nM
17 | CC(C)(CNC(=O)C(=O)Nc1ccc(OC(F)F)cc1)CNC(=O)c1ccc(Nc2nc(NC3(c4ccc(Cl)cc4)CC3)nc(OCC(F)(F)F)n2)cc1 [Compound 3146] | 0.01 to 10 nM
18 | O=C(NC/C(=N/C(=O)c1ccc(Nc2nc(NC3(c4ccc(Cl)cc4)CC3)nc(OCC(F)(F)F)n2)cc1)C(=O)O)C(=O)Nc1ccc(C2CCCCC2)cc1 [Compound 3147] | 0.01 to 10 nM
19 | O=C(NC/C(=N/C(=O)c1ccc(Nc2nc(NC3(c4ccc(Cl)cc4)CC3)nc(OCC(F)(F)F)n2)cc1)C(=O)O)C(=O)Nc1ccc(N2CCOCC2)cc1 [Compound 3148] | 0.01 to 10 nM
20 | O=C(NC/C(=N/C(=O)c1ccc(Nc2nc(NC3(c4ccc(Cl)cc4)CC3)nc(OCC(F)(F)F)n2)cc1)C(=O)O)C(=O)Nc1ccc(Cl)cc1 [Compound 3149] | 0.01 to 10 nM
21 | O=C(NC/C(=N/C(=O)c1ccc(Nc2nc(NC3(c4ccc(Cl)cc4)CC3)nc(OCC(F)(F)F)n2)cc1)C(=O)O)C(=O)Nc1ccc(Oc2ccccc2)cc1 [Compound 3150] | 0.01 to 10 nM
22 | O=C(NC/C(=N/C(=O)c1ccc(Nc2nc(NC3(c4ccc(Cl)cc4)CC3)nc(OCC(F)(F)F)n2)cc1)C(=O)O)C(=O)Nc1ccc(-c2ccccc2)cc1 [Compound 3151] | 0.01 to 10 nM
23 | O=C(NC/C(=N/C(=O)c1ccc(Nc2nc(NC3(c4ccc(Cl)cc4)CC3)nc(OCC(F)(F)F)n2)cc1)C(=O)O)C(=O)Nc1ccc(C(=O)c2ccccc2)cc1 [Compound 3152] | 0.01 to 10 nM
24 | Cc1ccc(NC(=O)C(=O)NC/C(=N/C(=O)c2ccc(Nc3nc(NC4(c5ccc(Cl)cc5)CC4)nc(OCC(F)(F)F)n3)cc2)C(=O)O)cc1 [Compound 3153] | 0.01 to 10 nM
25 | O=C(NC/C(=N/C(=O)c1ccc(Nc2nc(NC3(c4ccc(Cl)cc4)CC3)nc(OCC(F)(F)F)n2)cc1)C(=O)O)C(=O)Nc1ccc(CCO)cc1 [Compound 3154] | 0.01 to 10 nM
26 | NS(=O)(=O)c1ccc(NC(=O)C(=O)NC/C(=N/C(=O)c2ccc(Nc3nc(NC4(c5ccc(Cl)cc5)CC4)nc(OCC(F)(F)F)n3)cc2)C(=O)O)cc1 [Compound 3155] | 0.01 to 10 nM
27 | NC(=O)c1ccc(NC(=O)C(=O)NC/C(=N/C(=O)c2ccc(Nc3nc(NC4(c5ccc(Cl)cc5)CC4)nc(OCC(F)(F)F)n3)cc2)C(=O)O)cc1 [Compound 3156] | 0.01 to 10 nM
28 | CCN(CC)CCNC(=O)c1ccc(NC(=O)C(=O)NC/C(=N/C(=O)c2ccc(Nc3nc(NC4(c5ccc(Cl)cc5)CC4)nc(OCC(F)(F)F)n3)cc2)C(=O)O)cc1 [Compound 3157] | 0.01 to 10 nM
29 | O=C(NC/C(=N/C(=O)c1ccc(Nc2nc(NC3(c4ccc(Cl)cc4)CC3)nc(OCC(F)(F)F)n2)cc1)C(=O)O)C(=O)Nc1ccc(NCc2ccccc2)cc1 [Compound 3158] | 0.01 to 10 nM
30 | O=C(NC/C(=N/C(=O)c1ccc(Nc2nc(NC3(c4ccc(Cl)cc4)CC3)nc(OCC(F)(F)F)n2)cc1)C(=O)O)C(=O)Nc1ccc(Cc2ccccc2)cc1 [Compound 3159] | 0.01 to 10 nM
31 | CC1CN(c2ccc(NC(=O)C(=O)NC/C(=N/C(=O)c3ccc(Nc4nc(NC5(c6ccc(Cl)cc6)CC5)nc(OCC(F)(F)F)n4)cc3)C(=O)O)cc2)CC(C)N1 (centres unmarked) [Compound 3160] | 0.01 to 10 nM
32 | O=C(NC/C(=N/C(=O)c1ccc(Nc2nc(NC3(c4ccc(Cl)cc4)CC3)nc(OCC(F)(F)F)n2)cc1)C(=O)O)C(=O)Nc1ccc(-c2nnco2)cc1 [Compound 3161] | 0.01 to 10 nM

Row | Structure (SMILES) | EC50
33 | O=C(NC/C(=N/C(=O)c1ccc(Nc2nc(NC3(c4ccc(Cl)cc4)CC3)nc(OCC(F)(F)F)n2)cc1)C(=O)O)C(=O)Nc1ccc(Cc2ccncc2)cc1 [Compound 3162] | 0.01 to 10 nM
34 | O=C(NC/C(=N/C(=O)c1ccc(Nc2nc(NC3(c4ccc(Cl)cc4)CC3)nc(OCC(F)(F)F)n2)cc1)C(=O)O)C(=O)Nc1ccc(-n2cnc(O)c2O)cc1 [Compound 3163] | 0.01 to 10 nM
35 | O=C(NC/C(=N/C(=O)c1ccc(Nc2nc(NC3(c4ccc(Cl)cc4)CC3)nc(OCC(F)(F)F)n2)cc1)C(=O)O)C(=O)Nc1ccc(OCC(F)(F)F)cc1 [Compound 3164] | 0.01 to 10 nM
36 | O=C(NC/C(=N/C(=O)c1ccc(Nc2nc(NC3(c4ccc(Cl)cc4)CC3)nc(OCC(F)(F)F)n2)cc1)C(=O)O)C(=O)Nc1ccc(N2CCCC2=O)cc1 [Compound 3165] | 0.01 to 10 nM
37 | O=C(NC/C(=N/C(=O)c1ccc(Nc2nc(NC3(c4ccc(Cl)cc4)CC3)nc(OCC(F)(F)F)n2)cc1)C(=O)O)C(=O)Nc1ccc(C(=O)N2CCOCC2)cc1 [Compound 3166] | 0.01 to 10 nM
38 | N#Cc1ccc(NC(=O)C(=O)NC/C(=N/C(=O)c2ccc(Nc3nc(NC4(c5ccc(Cl)cc5)CC4)nc(OCC(F)(F)F)n3)cc2)C(=O)O)cc1 [Compound 3167] | 0.01 to 10 nM
39 | O=C(NC/C(=N/C(=O)c1ccc(Nc2nc(NC3(c4ccc(Cl)cc4)CC3)nc(OCC(F)(F)F)n2)cc1)C(=O)O)C(=O)Nc1ccc(-n2cncn2)cc1 [Compound 3168] | 0.01 to 10 nM
40 | O=C(NC/C(=N/C(=O)c1ccc(Nc2nc(NC3(c4ccc(Cl)cc4)CC3)nc(OCC(F)(F)F)n2)cc1)C(=O)O)C(=O)Nc1ccc(N2CCN(Cc3ccccc3)CC2)cc1 [Compound 3169] | 0.01 to 10 nM
41 | N#Cc1ccc(-c2ccc(NC(=O)C(=O)NC/C(=N/C(=O)c3ccc(Nc4nc(NC5(c6ccc(Cl)cc6)CC5)nc(OCC(F)(F)F)n4)cc3)C(=O)O)cc2)cc1 [Compound 3170] | 0.01 to 10 nM
42 | Cc1cc(C)nc(N(C)c2ccc(NC(=O)C(=O)NC/C(=N/C(=O)c3ccc(Nc4nc(NC5(c6ccc(Cl)cc6)CC5)nc(OCC(F)(F)F)n4)cc3)C(=O)O)cc2)n1 [Compound 3171] | 0.01 to 10 nM
43 | O=C(NC/C(=N/C(=O)c1ccc(Nc2nc(NC3(c4ccc(Cl)cc4)CC3)nc(OCC(F)(F)F)n2)cc1)C(=O)O)C(=O)Nc1ccc(-n2cccn2)cc1 [Compound 3173] | 0.01 to 10 nM
44 | Cc1cc(C)n(-c2ccc(NC(=O)C(=O)NC/C(=N/C(=O)c3ccc(Nc4nc(NC5(c6ccc(Cl)cc6)CC5)nc(OCC(F)(F)F)n4)cc3)C(=O)O)cc2)n1 [Compound 3174] | 0.01 to 10 nM
45 | NC(=O)C(=O)NCC1(CNC(=O)c2ccc(Nc3nc(NC4(c5ccc(Cl)cc5)CC4)nc(OCC(F)(F)F)n3)cc2)CC1 [Compound 3175] | 0.01 to 10 nM
46 | Cn1cc(NC(=O)C(=O)NCC(C)(C)CNC(=O)c2ccc(Nc3nc(NC4(c5ccc(Cl)cc5)CC4)nc(OCC(F)(F)F)n3)cc2)cn1 [Compound 3176] | 0.01 to 10 nM
47 | Cc1cc(C)n(-c2ccccc2NC(=O)C(=O)NCC(C)(C)CNC(=O)c2ccc(Nc3nc(NC4(c5ccc(Cl)cc5)CC4)nc(OCC(F)(F)F)n3)cc2)n1 [Compound 3177] | 0.01 to 10 nM
48 | Cn1cnc(NC(=O)C(=O)NCC(C)(C)CNC(=O)c2ccc(Nc3nc(NC4(c5ccc(Cl)cc5)CC4)nc(OCC(F)(F)F)n3)cc2)c1 [Compound 3178] | 0.01 to 10 nM
49 | CC(C)(CNC(=O)C(=O)Oc1cncs1)CNC(=O)c1ccc(Nc2nc(NC3(c4ccc(Cl)cc4)CC3)nc(OCC(F)(F)F)n2)cc1 [Compound 3179] | 0.01 to 10 nM
50 | CC(C)(CNC(=O)C(=O)Nc1ccccc1-n1ccnc1)CNC(=O)c1ccc(Nc2nc(NC3(c4ccc(Cl)cc4)CC3)nc(OCC(F)(F)F)n2)cc1 [Compound 3180] | 0.01 to 10 nM
51 | COC(=O)[C@H](CNC(=O)C(=O)Nc1ccc(-c2ccncc2)cc1)NC(=O)c1ccc(Nc2nc(NC3(c4ccc(Cl)cc4)CC3)nc(OCC(F)(F)F)n2)cc1 [Compound 3181] | 0.01 to 10 nM
52 | COC(=O)[C@H](CNC(=O)C(=O)Nc1ccc(Cn2cncn2)cc1)NC(=O)c1ccc(Nc2nc(NC3(c4ccc(Cl)cc4)CC3)nc(OCC(F)(F)F)n2)cc1 [Compound 3182] | 0.01 to 10 nM
53 | COC(=O)[C@H](CNC(=O)C(=O)Nc1ccc(-n2ccnc2)cc1)NC(=O)c1ccc(Nc2nc(NC3(c4ccc(Cl)cc4)CC3)nc(OCC(F)(F)F)n2)cc1 [Compound 3183] | 0.01 to 10 nM
54 | COC(=O)[C@H](CNC(=O)C(=O)Nc1ccc(Oc2ccc(F)cc2)cc1)NC(=O)c1ccc(Nc2nc(NC3(c4ccc(Cl)cc4)CC3)nc(OCC(F)(F)F)n2)cc1 [Compound 3184] | 0.01 to 10 nM
55 | COC(=O)[C@H](CNC(=O)C(=O)Nc1ccc(-c2nc(OC)cc(OC)n2)cc1)NC(=O)c1ccc(Nc2nc(NC3(c4ccc(Cl)cc4)CC3)nc(OCC(F)(F)F)n2)cc1 [Compound 3185] | 0.01 to 10 nM
56 | COC(=O)[C@H](CNC(=O)C(=O)Nc1ccc(N2CCN(C(C)=O)CC2)cc1)NC(=O)c1ccc(Nc2nc(NC3(c4ccc(Cl)cc4)CC3)nc(OCC(F)(F)F)n2)cc1 [Compound 3186] | 0.01 to 10 nM
